Assay results: patent US20130280270A1, “METHODS OF TREATING LUNG DISEASE AND OTHER INFLAMMATORY DISEASES” (Duke University, priority 2009, published 2013)
Read-outs that look alike come from different tables or passages of the source.

Key:
ozone-induced AHR = assay: Ozone-induced AHR mouse model (asthma precipitated by air pollution); format: in vivo
Text: (§1) We have carried out experiments with GRP blockade given as an intraperitoneal (IP) injection to prevent and/or treat AHR in several different mouse models of airways hyperreactivity (AHR) and/or inflammation: ozone-induced AHR as a model for asthma precipitated by air pollution, ovalbumin (OVA)-induced AHR as a model of allergic airways inflammation, and endotoxin (lipopolysaccharide, LPS)-induced AHR as a first step towards assessing infectious causes of asthma. These experiments used the small molecule GRP inhibitor, 77427, or a monoclonal anti-GRP blocking antibody, 2A 11. […] In the near future, we hope to test GRP blockade in additional mouse models of asthma, including: Mycoplasma infection, respiratory syncytial virus (RSV) infection, Aspergillus infection, and house dust mite exposure.
(§2) In contrast, mice were treated with dexamethasone (Dex), the standard of care for asthma, before ozone exposure.

[1] = tested on: chronic radiation pneumonitis; assay: Chronic radiation pneumonitis in mice after 15 Gy thoracic radiation; format: in vivo; details: 500 nM 77427 twice a week IP following 15 Gy thoracic radiation
Description: We can also block chronic radiation pneumonitis in mice given 500 nM 77427 twice a week IP following 15 Gy thoracic radiation.

cytokines = assay: Cytokine levels in ozone and ovalbumin in vivo mouse models of asthma
Text: We have carried out experiments with GRP blockade given as an intraperitoneal (IP) injection to prevent and/or treat AHR in several different mouse models of airways hyperreactivity (AHR) and/or inflammation: ozone-induced AHR as a model for asthma precipitated by air pollution, ovalbumin (OVA)-induced AHR as a model of allergic airways inflammation, and endotoxin (lipopolysaccharide, LPS)-induced AHR as a first step towards assessing infectious causes of asthma. […] The invention would extend to any compound able to block GRP signaling by either binding to GRP itself or to the GRP receptor, which are part of the same signal transduction cascade. In the near future, we hope to test GRP blockade in additional mouse models of asthma, including: Mycoplasma infection, respiratory syncytial virus (RSV) infection, Aspergillus infection, and house dust mite exposure.

[2] = tested on: ovalbumin (OVA)-induced AHR; assay: Ovalbumin (OVA)-induced AHR mouse model (allergic airways inflammation); format: in vivo
Text: as §1, §2

GRP [3] = molecular target: T1, GRP (Homo sapiens, UniProt P07492); details: cited from earlier work
T1 sequence (P07492 24-50 limits assumed): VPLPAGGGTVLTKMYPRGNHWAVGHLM

GRP [4] = molecular target: T1, GRP; details: prevention of antibody-ligand interaction; blocking GRP-induced IP3 production and Ca2+ flux; cited from earlier work
[5] = F. Cuttitta, unpublished data; cited from earlier work
GRP-induced angiogenesis = details: in vitro and in vivo; cited from earlier work
[6] = tested on: endothelial cell tube formation; details: Matrigel support matrix; cited from earlier work
neovascularization = details: on a molar basis (≈500 nM), compared with MoAb-2A11; cited from earlier work
GRP receptor = details: lung slices from one non-human primate, 2 slices MCh + antagonist; morphological assessment; cited from earlier work

Compound: C[C@@H]1C[C@H]2[C@@H]3CCC4=CC(=O)C=C[C@]4(C)[C@@]3(F)[C@@H](O)C[C@]2(C)[C@@]1(O)C(=O)CO [Dex, dexamethasone]
- number of cytokines with significantly increased levels (ozone-induced AHR; treatment before ozone, IL-6, IL-12 (p40), TNFα): 3

Compound: Nc1nc(Cl)cc(NCCO)n1 [compound 77427]
- chronic radiation pneumonitis [1]: block
- Interleukin-2 (IL-2) (cytokines; FIG. 2A): suppression
- TNF-alpha (cytokines; FIG. 2C): suppression
- GM-CSF (cytokines; FIG. 2D): suppression
- IL-4 (cytokines; FIG. 2E): suppression
- IL-5 (cytokines; FIG. 2F): suppression
- IL-13 (cytokines; FIG. 2G): suppression
- IL-6 (cytokines; FIG. 2H): suppression
- IL-17 (cytokines; FIG. 2I): suppression
- MCP-1 (cytokines; FIG. 2J): suppression
- KC (cytokines; FIG. 2K): suppression
- VEGF (cytokines; FIG. 2L): suppression
- cytokines tested whose increased levels are significantly suppressed (P<0.0001) or abrogated (cytokines; ozone and ovalbumin models, cytokines represent at least 5 inflammatory cell types): 21 of 21
- airway hyperreactivity (AHR) (ozone-induced AHR; ozone model): abrogates
- airways inflammation (ozone-induced AHR; ozone model): abrogates
- airway hyperreactivity (AHR) [2]: abrogates
- airways inflammation [2]: abrogates
- blocks % of GRP (GRP [3]; 5 nM 77427): 50%
- blocks % of GRP (GRP [3]; 50 nM 77427): 70%
- blocks % of GRP (GRP [3]; 500 nM 77427): 95%
- mimetic to MoAb-2A11 / antagonist to GRP in screen (GRP [4]): ideal mimetic to MoAb-2A11
- half-life [5]: ~240 h
- inhibition of GRP-induced angiogenesis (GRP-induced angiogenesis): potent inhibitor
- blocking of GRP mediated endothelial cell tube formation [6]: effective blocker
- suppressive response in stopping neovascularization (neovascularization): equivalent suppressive response as MoAb-2A11

Compound: [Leu^13-(ψ-CH2NH)-Leu^14]-bombesin
- MCh-induced reduction of internal airway diameter (bronchoconstriction) of bronchi (GRP receptor): slightly reduced
